# Source: patent US4837226A, “Polycyclic amine derivatives useful as cerebrovascular agents” (Warner-Lambert Company, priority 1988, dated 1989)
# Experiments:
# [1] = tested on: cultured rat cortical neurons; test: Inhibition of hypoxia induced [45Ca] influx (HCI) into cultured rat cortical neurons; format: cell-based; conditions: for IC50: Cortical neurone, cultured rat cortical neurons, 95% N2/5% CO2, 37° C., 4 hours; for inhibition of hypoxia induced calcium influx (in words): conclusion from Table IV
# Text: (§1) The ability of the compounds of the instant invention to inhibit the glutamate and hypoxia stimulated influx of calcium into cultured rat cortical neurons is shown in Table III and Table IV respectively. The methodology for determining the ability of the compounds of the instant invention to inhibit the glutamate stimulated calcium influx (GCI) into cultured rat cortical neurons is to be found in: A. W. Probert and F. W. Marcoux, Soc. Neurosci. Abstr., 13, Part II, 754, (1987). Using a similar culture system, the ability of the compounds of the instant invention to inhibit the hypoxia stimulated influx of calcium (HCI) was determined by incubating cultured cells in an atmosphere of nitrogen (95%) and CO2 (5%) at 37° C. for a period of 4 hours. Calcium influx was determined by subtraction of the stimulated influx in the presence of tetrodotoxin (3 μM) and magnesium (10 mM) from that found in the absence (control) and in the presence of the test substance.
# [2] = target: phencyclidene (PCP) receptors; test: [3H]TCP receptor binding (RBS1), rat brain cortex membranes; conditions: for IC50: [3H]TCP, rat brain cortex membranes, read-out: Inhibition of [^3 H]TCP Receptor Binding, RBS1 IC50; for potency compared with TCP and MK-801 (in words): comparison from Table II; for inhibition of [^3 H]TCP receptor binding (in words): conclusion from Table II
# Procedure: Tritiated TCP binding, designated RBS1, was carried out essentially as described in J. Pharmacol. Exp. Ther., 238, 739-748 (1986).
# [3] = tested on: cultured rat cortical neurons; test: Inhibition of glutamate stimulated [45Ca] influx (GCI) into cultured rat cortical neurons; format: cell-based; conditions: for IC50: Cortical neurone, cultured rat cortical neurons, glutamate stimulated; for inhibition of glutamate stimulated influx of calcium (in words): conclusion from Table III
# Text: as §1
Compound,IC50 [1],inhibition of hypoxia induced calcium influx (in words) [1],IC50 [2],potency compared with TCP and MK-801 (in words) [2],inhibition of [^3 H]TCP receptor binding (in words) [2],IC50 [3],inhibition of glutamate stimulated influx of calcium (in words) [3]
"NC12CCCCC1Cc1ccccc12 (centres unmarked) [Example 1, 1,2,3,4,9,9a-hexahydro-4aH-fluoren-4a-amine]",167 nM,potent inhibitors,27 nM,potency comparable to both TCP and MK-801,potent inhibitors,–,–
"CNC12CCCCC1Sc1ccccc12 (centres unmarked) [Example 30, 6,7,8,9-tetrahydro-N-methyl-9a(5aH)-dibenzothiophenamine]",200 nM,potent inhibitors,10 nM,potency comparable to both TCP and MK-801,potent inhibitors,260 nM,inhibit the glutamate stimulated influx of calcium
"C[C@]12N[C@H](Cc3ccccc31)c1ccccc12 [MK-801, reference compound]",34 nM,–,–,–,–,51 nM,–
"COCCCNC12CCCCC1Cc1ccccc12 (centres unmarked) [Example 8, 1,2,3,4,9,9a-hexahydro-N-(3-methoxypropyl)-4aH-fluoren-4a-amine]",43 nM,potent inhibitors,102 nM,–,potent inhibitors,1900 nM,inhibit the glutamate stimulated influx of calcium
"CNC1(c2ccccc2Cl)CCCCC1=O (centres unmarked) [ketamine, reference compound]",1900 nM,–,–,–,–,5500 nM,–
"c1ccc(C2(N3CCCCC3)CCCCC2)cc1 [PCP, phencyclidene, reference compound]",45 nM,–,40 nM,–,–,160 nM,–
"CNC12CC(C)CCC1Cc1ccccc12 (centres unmarked) [Example 12, 1,2,3,4,9,9a-hexahydro-3-methyl-N-methyl-(4aH)-fluoren-4a-amine]",95 nM,potent inhibitors,95 nM,–,potent inhibitors,1900 nM,inhibit the glutamate stimulated influx of calcium
"CCNC12CCCCC1Oc1ccccc12 (centres unmarked) [Example 27, N-ethyl-6,7,8,9-tetrahydro-9a(5aH)-dibenzofuranamine]",124 nM,potent inhibitors,141 nM,–,potent inhibitors,1800 nM,inhibit the glutamate stimulated influx of calcium
"CNC12CCCCC1Cc1ccccc12 (centres unmarked) [Example 2, 1,2,3,4,9,9a-hexahydro-N-methyl-4aH-fluoren-4a-amine]",5 nM,potent inhibitors,15 nM,potency comparable to both TCP and MK-801,potent inhibitors,304 nM,inhibit the glutamate stimulated influx of calcium
